US20140045890A1, “NOVEL COMPOUNDS” (SYNGENTA PARTICIPATIONS AG, priority 2011, published 2014)

Assays:
Phytophthora infestans = test: whole plant or invertebrate; type: in vivo; conditions: in Solanum lycopersicum, foliar, read-out: inhibit fungal infestation (percent disease control compared to untreated)
Pythium ultimum = Pythium ultimum / liquid culture (seedling damping off); type: cell-based; conditions: Globisporangium ultimum, liquid culture in PDB, 24° C., 2-3 days after application, read-out: inhibit fungal infestation (inhibition of growth determined photometrically)
[1] = tested on: Blumeria qraminis f. sp. tritici (Erysiphe qraminis f. sp. tritici); test: Blumeria graminis f. sp. tritici / wheat / leaf disc preventative (powdery mildew on wheat); type: in vivo; conditions: foliar, wheat leaf segments cv. Kanzler, inoculated 1 day after application, assessed 6-8 days after application, read-out: inhibit fungal infestation (percent disease control compared to untreated)
[2] = tested on: Phaeosphaeria nodorum (Septoria nodorum); test: Phaeosphaeria nodorum (Septoria nodorum) / wheat / leaf disc preventative (glume blotch); type: in vivo; conditions: Parastagonospora nodorum, foliar, wheat leaf segments cv. Kanzler, inoculated 2 days after application, assessed 5-7 days after application, read-out: inhibit fungal infestation (percent disease control compared to untreated)
Plasmopara viticola = Plasmopara viticola / grape / leaf disc preventative; type: in vivo; conditions: foliar, grape vine leaf disks, inoculated 1 day after application, assessed 6-8 days after application, read-out: inhibit fungal infestation (percent disease control compared to untreated)

Compound | inhibition at 200 ppm (Phytophthora infestans) | inhibition at 200 ppm (Pythium ultimum) | inhibition at 200 ppm [1] | inhibition at 200 ppm [2] | inhibition at 200 ppm (Plasmopara viticola) | melting point
C#Cc1cnc2c(C)cc(OC(SC)C(=O)NC(C)(C)c3ccon3)cc2c1 (stereo not shown) [Compound 39, 2-[(3-ethynyl-8-methyl-6-quinolyl)oxy]-N-(1-isoxazol-3-yl-1-methyl-ethyl)-2-methylsulfanyl-acetamide] | ≥ 80% | ≥ 80% | ≥ 80% | ≥ 80% | ≥ 80% | 
C#Cc1cnc2ccc(OC(SC)C(=O)NC(C)(C)c3ccon3)cc2c1 (stereo not shown) [Compound 44] | ≥ 80% | ≥ 80% | ≥ 80% | ≥ 80% | ≥ 80% | 
C#Cc1cnc2c(C)cc(OC(SC)C(=O)NC(C)(C)c3nocc3Br)cc2c1 (stereo not shown) [Compound 45, N-[1-(4-bromoisoxazol-3-yl)-1-methyl-ethyl]-2-[(3-ethynyl-8-methyl-6-quinolyl)oxy]-2-methylsulfanyl-acetamide] |  | ≥ 80% | ≥ 80% | ≥ 80% | ≥ 80% | 63 to 65 °C
C#Cc1cnc2ccc(OC(SC)C(=O)NC(C)(C)c3nocc3Cl)cc2c1 (stereo not shown) [Compound 51] | ≥ 80% | ≥ 80% | ≥ 80% | ≥ 80% | ≥ 80% | 
C#Cc1cnc2ccc(OC(SC)C(=O)NC(C)(C)c3cc(C)on3)cc2c1 (stereo not shown) [Compound 53] | ≥ 80% | ≥ 80% | ≥ 80% | ≥ 80% | ≥ 80% | 
C#Cc1cnc2c(C)cc(OC(SC)C(=O)NC(CC)c3ccccn3)cc2c1 (stereo not shown) [Compound 60] |  | ≥ 80% | ≥ 80% | ≥ 80% |  | 
C#Cc1cnc2c(Cl)cc(OC(SC)C(=O)NC(C)(C)c3cc(C)on3)cc2c1 (stereo not shown) [Compound 68] |  | ≥ 80% | ≥ 80% | ≥ 80% | ≥ 80% | 
C#Cc1cnc2ccc(OC(SC)C(=O)NC(C)(C)c3cc(Cl)on3)cc2c1 (stereo not shown) [Compound 73] | ≥ 80% | ≥ 80% | ≥ 80% | ≥ 80% | ≥ 80% | 
C#Cc1cnc2c(C)cc(OC(SC)C(=O)NC(C)(C)c3nocc3C)cc2c1 (stereo not shown) [Compound 75] |  | ≥ 80% |  | ≥ 80% | ≥ 80% | 
C#Cc1cnc2ccc(OC(SC)C(=O)NC(C)(C)c3nocc3C)cc2c1 (stereo not shown) [Compound 78] |  | ≥ 80% | ≥ 80% | ≥ 80% | ≥ 80% | 
C#Cc1cnc2cc(F)c(OC(SC)C(=O)NC(C)(C)c3cccc(C)n3)cc2c1 (stereo not shown) [Compound 111] |  | ≥ 80% | ≥ 80% | ≥ 80% |  | 
C#Cc1cnc2c(Cl)cc(OC(SC)C(=O)NC(C)(C)c3cccc(C)n3)cc2c1 (stereo not shown) [Compound 113] |  | ≥ 80% | ≥ 80% | ≥ 80% |  | 
C#Cc1cnc2c(C)cc(OC(SC)C(=O)NCc3nccs3)cc2c1 (stereo not shown) [Compound 116] |  | ≥ 80% |  | ≥ 80% |  | 
C#Cc1cnc2c(Cl)cc(OC(SC)C(=O)NCc3nccs3)cc2c1 (stereo not shown) [Compound 117] |  | ≥ 80% | ≥ 80% | ≥ 80% |  | 
C=Cc1cnc2ccc(OC(SC)C(=O)NC(C)(C)c3ccccn3)cc2c1 (stereo not shown) [Compound 133, N-[1-methyl-1-(2-pyridyl)ethyl]-2-methylsulfanyl-2-[(3-vinyl-6-quinolyl)oxy]acetamide] |  |  |  |  |  | 95 to 97 °C
C=Cc1cnc2c(Cl)cc(OC(OC)C(=O)NC(C)(C)c3ccccn3)cc2c1 (stereo not shown) [Compound 134] |  | ≥ 80% | ≥ 80% |  | ≥ 80% | 93 °C
C=Cc1cnc2c(Cl)cc(OC(CC)C(=O)NC(C)(C)c3ccon3)cc2c1 (stereo not shown) [Compound 136] |  | ≥ 80% | ≥ 80% |  |  | 104 °C
C=Cc1cnc2c(F)cc(OC(CC)C(=O)NC(C)(C)c3nccs3)cc2c1 (stereo not shown) [Compound 137] | ≥ 80% | ≥ 80% | ≥ 80% |  | ≥ 80% | 102 °C
C=Cc1cnc2c(F)cc(OC(OC)C(=O)NC(C)(C)c3ccon3)cc2c1 (stereo not shown) [Compound 138] |  |  | ≥ 80% |  |  | 118 °C
C=Cc1cnc2c(F)cc(OC(CC)C(=O)NC(C)(C)c3cc(CC)on3)cc2c1 (stereo not shown) [Compound 139] | ≥ 80% | ≥ 80% |  |  | ≥ 80% | 114 °C
COC(Oc1cc(Cl)c2ncc(Br)cc2c1)C(=O)NC(C)(C)c1nccs1 (stereo not shown) [Compound 140] |  |  | ≥ 80% |  |  | 111 °C
